Among the data in patent publication US8119805B2, “Substituted disulfonamide compounds” (Gruenenthal GmbH, priority 2008, dated 2012) are inhibition values, retold here.

Where a name gives a salt, the structure may show the parent alone.

Assay [1] has as its target T1, B1R receptor of the rat (rB1R) (Rattus norvegicus, UniProt P97583).
T1 construct: expressed in transfected cells; host or cells: CHO K1 cells
T1 sequence (P97583 1-337): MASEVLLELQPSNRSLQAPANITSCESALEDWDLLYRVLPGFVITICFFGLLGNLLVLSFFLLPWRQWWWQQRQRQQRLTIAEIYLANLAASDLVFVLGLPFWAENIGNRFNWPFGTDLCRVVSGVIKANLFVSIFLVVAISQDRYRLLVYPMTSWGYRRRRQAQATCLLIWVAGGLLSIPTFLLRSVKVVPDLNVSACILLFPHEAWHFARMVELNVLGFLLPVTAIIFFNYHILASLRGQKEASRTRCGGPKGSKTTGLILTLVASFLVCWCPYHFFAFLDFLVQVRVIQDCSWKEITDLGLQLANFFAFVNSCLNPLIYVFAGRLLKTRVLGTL
Put plainly: Functional investigation on the bradykinin 1 receptor (B1R), FLIPR Ca2+ assay, rB1R cells. Format: cell-based. Particulars: test substance 10 μM; CHO K1 cells transfected with rat B1R gene; Fluo-4 Ca2+ signal; agonist Des-Arg9-bradykinin at EC80; % of maximum achievable inhibition; read-out: B1R antagonism, rat [10 μM] % inhibition. Here is the method: (§1) The agonistic or antagonistic action of substances on the bradykinin 1 receptor (B1R) of the human and rat species can be quantified with ectopically expressing cell lines (CHO K1 cells) and with the aid of a Ca^2+-sensitive dyestuff (Fluo-4) in a fluorescent imaging plate reader (FLIPR). The value in % activation is based on the Ca^2+ signal after addition of Lys-Des-[…]-bradykinin (0.5 nM) or Des-[…]-bradykinin (100 nM). Antagonists lead to a suppression of the Ca^2+inflow after addition of the agonist. % inhibition compared with the maximum achievable inhibition is stated. The agonistic or antagonistic action of substances on the bradykinin 1 receptor (B1R) of the human and rat species can be determined with the following assay. In accordance with this assay, the Ca^2+ inflow through the channel is quantified with the aid of a Ca^2+-sensitive dyestuff (type Fluo-4, Molecular Probes Europe BV, Leiden, Holland) in a fluorescent imaging plate reader (FLIPR, Molecular Devices, Sunnyvale, USA). Chinese hamster ovary cells (CHO K1 cells) transfected stably with the human B1R gene (hB1R cells) or the B1R gene of the rat (rB1R cells) are used. For functional studies, these cells are plated out on black 96-well plates with a clear base (BD Biosciences, Heidelberg, Germany or Greiner, Frickenhausen, Germany) in a density of 20,000-35,000 cells/well. The cells are left overnight at 37° C. and 5% CO2 in culture medium (hB1R cells: Nutrient Mixture Ham's F12, Gibco Invitrogen GmbH, Karlsruhe, Germany or DMEM, Sigma-Aldrich, Taufkirchen, Germany; rB1R cells: D-MEM/F12, Gibco Invitrogen GmbH, Karlsruhe, Germany) with 10 vol. % FBS (foetal bovine serum, Gibco Invitrogen GmbH, Karlsruhe, Germany or PAN Biotech GmbH, Aidenbach, Germany). On the following day, the cells are loaded for 60 min at 37° C. with 2.13 μM Fluo-4 (Molecular Probes Europe BV, Leiden Holland) in HBSS buffer (Hank's buffered saline solution, Gibco Invitrogen GmbH, Karlsruhe, Germany) with 2.5 mM probenecid (Sigma-Aldrich, Taufkirchen, Germany) and 10 mM HEPES (Sigma-Aldrich, Taufkirchen, Germany). The plates are then washed 2× with HBSS buffer, and HBSS buffer which additionally contains 0.1% BSA (bovine serum albumin; Sigma-Aldrich, Taufkirchen, Germany), 5.6 mM glucose and 0.05% gelatine (Merck KGaA, Darmstadt, Germany) is added. After a further incubation of 20 minutes at room temperature, the plates are inserted into the FLIPR for the Ca^2+ measurement. Alternatively, the plates are washed with buffer A (15 mM HEPES, 80 mM NaCl, 5 mM KCl, 1.2 mM CaCl2, 0.7 mM MgSO4, 2 g/l glucose, 2.5 mM probenecid), buffer A is added and the plates are loaded with 2.5 μM Fluo-4 and 0.025% Pluronic F127 (Sigma-Aldrich, Taufkirchen, Germany). Thereafter, the cells are washed 2× with buffer A and incubated for 30 minutes at room temperature with buffer A, which additionally contains 0.05% BSA and 0.05% gelatine, and thereafter inserted into the FLIPR for the Ca^2+ measurement. The Ca^2+-dependent fluorescence is measured here before and after addition of substances (λex=488 nm, λem=540 nm). Quantification is by measurement of the highest fluorescence intensity (FC, fluorescence counts) over time. The FLIPR protocol consists of 2 additions of substance. Test substances (10 μM) are first pipetted on to the cells and the Ca^2+ inflow is compared with the control (hB1R: Lys-Des-[…]-bradykinin>=50 nM; rB1R: Des-[…]-bradykinin 10 μM). This gives the result in % activation based on the Ca^2+ signal after addition of Lys-Des-[…]-bradykinin (>=50 nM) or Des-[…]-bradykinin (10 μM). After incubation for 10-20 minutes, Lys-Des-[…]-bradykinin (hB1R) or Des-[…]-bradykinin (rB1R) at the EC80 concentration is applied and the inflow of Ca^2+ is likewise determined. Antagonists lead to a suppression of the Ca^2+ inflow. The percent inhibition compared to the maximum achievable inhibition is calculated. In order to determine the IC50 value, the substances are added in various concentrations. […]

Assay [2] deals with T2, human B1R receptor (hB1R) (Homo sapiens, UniProt P46663).
T2 construct: expressed in transfected cells; host or cells: CHO K1 cells
T2 sequence (P46663 1-353): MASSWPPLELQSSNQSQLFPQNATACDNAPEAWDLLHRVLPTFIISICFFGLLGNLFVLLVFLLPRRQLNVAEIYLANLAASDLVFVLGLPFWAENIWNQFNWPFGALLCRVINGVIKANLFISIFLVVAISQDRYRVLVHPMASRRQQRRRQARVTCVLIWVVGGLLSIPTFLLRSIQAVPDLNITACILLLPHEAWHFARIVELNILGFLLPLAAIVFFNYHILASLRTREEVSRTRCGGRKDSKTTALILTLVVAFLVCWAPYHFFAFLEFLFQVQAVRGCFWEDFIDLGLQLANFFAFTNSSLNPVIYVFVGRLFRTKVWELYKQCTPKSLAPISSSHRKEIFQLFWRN
Put plainly: Functional investigation on the bradykinin 1 receptor (B1R), FLIPR Ca2+ assay, hB1R cells. Particulars: test substance 10 μM; CHO K1 cells transfected with human B1R gene; Fluo-4 Ca2+ signal; agonist Lys-Des-Arg9-bradykinin at EC80; % of maximum achievable inhibition; read-out: B1R antagonism, human [10 μM] % inhibition. It counts as cell-based. As to the method:
as §1

Take `O=S(=O)(CCC[C@@H]1CCCN1S(=O)(=O)c1ccc2ccccc2c1)N1CCC(Oc2ccncc2)CC1` [Example 49, (S)-4-(1-(3-(1-(Naphthalen-2-ylsulfonyl)pyrrolidin-2-yl)propylsulfonyl)piperidin-4-yloxy)pyridine]: the inhibition (usually the relative decrease from the control value, in per cent) at 10 µM is 36% in assay [1] and 30% in assay [2].
Taken in the same sequence, the figures for `Cc1cc(C)c(S(=O)(=O)N2CCC[C@@H]2CCCS(=O)(=O)N2CCN(C3CCN(C)CC3)CC2)c(C)c1` [Example 41, (R)-1-(3-(1-(Mesitylsulfonyl)pyrrolidin-2-yl)propylsulfonyl)-4-(1-methylpiperidin-4-yl)piperazine dihydrochloride] were 7% and 50%.
In the same order, the values of `O=S(=O)(CCC[C@@H]1CCCN1S(=O)(=O)c1ccc(Cl)cc1Cl)N1[C@@H]2CC[C@H]1C[C@H](Oc1ccncc1)C2` [Example 59, (1R,3R,5S)-8-(3-((S)-1-(2,4-Dichlorophenylsulfonyl)pyrrolidin-2-yl)propylsulfonyl)-3-(pyridin-4-yloxy)-8-azabicyclo[3.2.1]octane] are 96% and 94%.
Taken in the same sequence, the figures for `COc1cc(C)c(S(=O)(=O)N2c3ccccc3CC2CCCS(=O)(=O)N2CCC(O)(c3cccnc3)CC2)c(C)c1` (stereo not shown) [Example 44, 1-(3-(1-(4-Methoxy-2,6-dimethylphenylsulfonyl)indolin-2-yl)propylsulfonyl)-4-(pyridin-3-yl)piperidin-4-ol] were 105% and 82%.
For the molecule `O=S(=O)(CCC[C@@H]1CCCN1S(=O)(=O)Cc1cccc(Cl)c1)N1CCC(Oc2ccncc2)CC1` [Example 70, (S)-4-(1-(3-(1-(3-Chlorobenzylsulfonyl)pyrrolidin-2-yl)propylsulfonyl)piperidin-4-yloxy)pyridine], the inhibition at 10 µM turned out to be 32% in assay [1] and 26% in assay [2].
Take `Cc1cccc(Cl)c1S(=O)(=O)N1CCC[C@H]1CCCS(=O)(=O)N1CCC2(CCN(c3ccncc3)C2)C1` (stereo partly drawn) [Example 83, 2-(3-((S)-1-(2-Chloro-6-methylphenylsulfonyl)pyrrolidin-2-yl)propylsulfonyl)-7-(pyridin-4-yl)-2,7-diazaspiro[4.4]nonane]: the inhibition at 10 µM in assay [1] is 104%; in assay [2] it was 99%.
Taken in the same sequence, the figures for `Cc1cccc(Cl)c1S(=O)(=O)N1CCC[C@H]1CCCS(=O)(=O)N1CCC(Oc2ccncc2)CC1` [Example 46, (S)-4-(1-(3-(1-(2-Chloro-6-methylphenylsulfonyl)pyrrolidin-2-yl)propylsulfonyl)piperidin-4-yloxy)pyridine] were 99% and 80%.
Taken in the same sequence, the figures for `O=S(=O)(CCC[C@@H]1CCCN1S(=O)(=O)c1cccc(Cl)c1Cl)N1CCC(Oc2ccncc2)CC1` [Example 52, (S)-4-(1-(3-(1-(2,3-Dichlorophenylsulfonyl)pyrrolidin-2-yl)propylsulfonyl)piperidin-4-yloxy)pyridine] were 87% and 71%.
Taken in the same sequence, the figures for `O=S(=O)(CCC[C@@H]1CCCN1S(=O)(=O)c1ccccc1C(F)(F)F)N1CCC(Oc2ccncc2)CC1` [Example 48, (S)-4-(1-(3-(1-(2-(Trifluoromethyl)phenylsulfonyl)pyrrolidin-2-yl)propylsulfonyl)piperidin-4-yloxy)pyridine] were 75% and 81%.
Take `Cc1cccc(Cl)c1S(=O)(=O)N1CCC[C@H]1CCCS(=O)(=O)N1CC(N2[C@@H]3CC[C@H]2C[C@H](Oc2ccncc2)C3)C1` [Example 81, (1R,3s,5S)-8-(1-(3-((S)-1-(2-Chloro-6-methylphenylsulfonyl)pyrrolidin-2-yl)propylsulfonyl)azetidin-3-yl)-3-(pyridin-4-yloxy)-8-azabicyclo[3.2.1]octane]: the inhibition at 10 µM in assay [1] is 98%; in assay [2], 96%.
Taken in the same sequence, the figures for `COc1cc(C)c(S(=O)(=O)N2CCCCC2CCCS(=O)(=O)N2CCC3(CCN(c4ccncc4)CC3)CC2)c(C)c1` (stereo not shown) [Example 74, 3-(3-(1-(4-Methoxy-2,6-dimethylphenylsulfonyl)piperidin-2-yl)propylsulfonyl)-9-(pyridin-4-yl)-3,9-diazaspiro[5.5]undecane] were 95% and 99%.
Taken in the same sequence, the figures for `CN1CCC(N2CCN(S(=O)(=O)CCCCC3CCCN3S(=O)(=O)c3c(Cl)cc(C(F)(F)F)cc3Cl)CC2)CC1` (stereo not shown) [Example 9, 1-(4-(1-(2,6-Dichloro-4-(trifluoromethyl)phenylsulfonyl)pyrrolidin-2-yl)butylsulfonyl)-4-(1-methylpiperidin-4-yl)piperazine] were 30% and 58%.
Taken in the same sequence, the figures for `Cc1ccc(S(=O)(=O)N2CCC[C@H]2CCCS(=O)(=O)N2CCC3(CCN(c4ccncc4)CC3)CC2)c2ccccc12` [Example 75, 3-(3-((S)-1-(4-Methylnaphthalen-1-ylsulfonyl)pyrrolidin-2-yl)propylsulfonyl)-9-(pyridin-4-yl)-3,9-diazaspiro[5.5]undecane] were 100% and 96%.
As to `Cc1cc(S(=O)(=O)N2CCC(CCS(=O)(=O)N3CCN(Cc4cccc(C#N)c4)CC3)C2)c(C)cc1Cl` (stereo not shown) [Example 43, 3-((4-(2-(1-(4-Chloro-2,5-dimethylphenylsulfonyl)pyrrolidin-3-yl)ethylsulfonyl)piperazin-1-yl)methyl)benzonitrile hydrochloride], the figures for the inhibition at 10 µM in assay [1] and in assay [2] were 50% and 11%, respectively.
